Here are results for 4 compounds from ChEMBL document CHEMBL1201862, “PubChem BioAssay data set” (2004).

Among the test systems are 786-0; CAKI-1; CCRF-CEM; HL-60; M14; MCF7; MDA-MB-231; NCI/ADR-RES; RPMI-8226; RXF 393; SF-295; SK-MEL-2; SK-MEL-5; SNB-19; SNB-75; SR; SW-620; TK-10; U-251; UO-31.
Holding throughout (test): NCI anticancer screen, dose series, 48 h

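Method: 48-hour compound exposure of cells in 96-well plates, five concentrations, linear interpolation of endpoints. GI50 is the concentration that inhibits growth by half.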 The source made the active and inactive calls. No stated cut-off is given here; in the data, active = GI50 up to about 1.1 µM and inactive = higher.

For the compound `Cc1cc2c([N+](=O)[O-])cc3c(c2o1)C(=O)C=CC3=O`, the GI50 is 2.01 µM (inactive) with 786-0; 1.06 µM (active) in the experiment on CAKI-1; 1.43 µM (inactive) with CCRF-CEM; 2.2 µM (inactive) with HL-60; 5.58 µM (inactive) in the experiment with M14; 4.18 µM (inactive) in the experiment with MCF7. For the same compound, the GI50 in the experiment with MDA-MB-231 was 18.7 µM (inactive); in the experiment on NCI/ADR-RES, 22.9 µM (inactive); in the experiment on RPMI-8226, 0.586 µM (active); in the experiment on RXF 393 it was 1.89 µM (inactive); in the experiment on SF-295, 8.13 µM (inactive); with SK-MEL-2, 19.1 µM (inactive). Also, the GI50 is 14.2 µM (inactive) with SK-MEL-5; 15.5 µM (inactive) with SNB-19; 25.6 µM (inactive) with SNB-75; 5.41 µM (inactive) with SR; 2.43 µM (inactive) in the experiment with SW-620; 2.38 µM (inactive) with TK-10. The GI50 with U-251 was 17.7 µM (inactive); in the experiment with UO-31, 1.67 µM (inactive).

For `Cc1ccc(S(=O)(=O)NNC(=S)Nc2cccc3ccccc23)cc1`, the GI50 with 786-0 was 14.2 µM (inactive); with CAKI-1, 55.7 µM (inactive); in the experiment on CCRF-CEM, 34.7 µM (inactive); in the experiment on HL-60, 28.3 µM (inactive); with M14 it was 43.2 µM (inactive); in the experiment with MCF7 it was 31.6 µM (inactive). The GI50 is 54.8 µM (inactive) in the experiment on MDA-MB-231; 38.1 µM (inactive) with NCI/ADR-RES; 37.4 µM (inactive) in the experiment on RPMI-8226; 85.9 µM (inactive) in the experiment on RXF 393; 34.7 µM (inactive) in the experiment with SF-295; 4.45 µM (inactive) in the experiment with SK-MEL-2. The GI50 with SK-MEL-5 is 17.8 µM (inactive); in the experiment on SNB-19 it was 68.1 µM (inactive); with SNB-75 it was 27.9 µM (inactive); with SR, 46.3 µM (inactive); in the experiment on SW-620, > 100 µM (inactive); in the experiment with TK-10, 53.7 µM (inactive). In addition, the GI50 in the experiment on U-251 was 40.6 µM (inactive); in the experiment on UO-31, 43.4 µM (inactive).

In the case of `CCc1nc(N)nc(N)c1-c1ccc(NCCc2ccccc2)c([N+](=O)[O-])c1`, the GI50 in the experiment with 786-0 was 0.211 µM (active); in the experiment on CAKI-1, 0.39 µM (active); with CCRF-CEM it was 0.297 µM (active); with HL-60 it was 0.186 µM (active); in the experiment with M14, 0.276 µM (active); with MCF7, 1.13 µM (inactive). For the same compound, the GI50 in the experiment with MDA-MB-231 was 8.65 µM (inactive); in the experiment with NCI/ADR-RES it was 0.716 µM (active); with RPMI-8226, 1.11 µM (active); with RXF 393, 3.55 µM (inactive); with SF-295 it was 0.317 µM (active); with SK-MEL-2 it was 8.71 µM (inactive). Moreover, the GI50 is 0.486 µM (active) in the experiment with SK-MEL-5; 2.21 µM (inactive) in the experiment with SNB-19; 3.56 µM (inactive) in the experiment on SNB-75; 0.215 µM (active) in the experiment on SR; 0.163 µM (active) in the experiment with SW-620; 13.3 µM (inactive) in the experiment on TK-10. The GI50 is 0.364 µM (active) with U-251 and 1.86 µM (inactive) in the experiment with UO-31.

Turning to `COC(=O)c1cc(C#N)[nH]c1-c1ccc(Br)s1`, the GI50 in the experiment with 786-0 is 14.5 µM (inactive); with CAKI-1, 19.2 µM (inactive); in the experiment with CCRF-CEM, 21.1 µM (inactive); in the experiment with HL-60, 11.5 µM (inactive); in the experiment on M14 it was 9.73 µM (inactive); in the experiment on MCF7 it was 0.459 µM (active). Moreover, the GI50 with MDA-MB-231 was 14.5 µM (inactive); with NCI/ADR-RES it was 10.3 µM (inactive); with RPMI-8226, 5.08 µM (inactive); with RXF 393 it was 4.3 µM (inactive); with SF-295, 8.41 µM (inactive); in the experiment with SK-MEL-2 it was 6.55 µM (inactive). The GI50 in the experiment with SK-MEL-5 is 4.11 µM (inactive); with SNB-19, 7.74 µM (inactive); in the experiment on SNB-75, 8.85 µM (inactive); in the experiment with SR, 16.8 µM (inactive); with SW-620 it was 15.9 µM (inactive); in the experiment with TK-10 it was 13 µM (inactive). The GI50 with U-251 is 10.4 µM (inactive); in the experiment on UO-31, 5.7 µM (inactive).
